# Laboratory results reported in ChEMBL document CHEMBL4765383, “Amphiphilic aminoglycosides with increased selectivity for inhibition of connexin 43 (Cx43) hemichannels” (Eur J Med Chem, 2020).
# Legend:
# [1] = biological target: Gap junction beta-2 protein (Homo sapiens) (UniProt P29033); assay: Inhibition of human Cx26 expressed in kanamycin-resistant Escherichia coli LB2003 cells in medium containing […] K+ and 500 uM IPTG by measuring cell growth at 15 uM after 18 hrs by growth complementation assay; set-up: scale not given: the % may be the effect or the level left
# [2] = biological target: Gap junction beta-2 protein (Homo sapiens) (UniProt P29033); assay: Inhibition of human Cx26 expressed in kanamycin-resistant Escherichia coli LB2003 cells in medium containing […] K+ and 500 uM IPTG by measuring cell growth at 50 uM after 18 hrs by growth complementation assay; set-up: scale not given: the % may be the effect or the level left
# [3] = biological target: Gap junction alpha-1 protein (Homo sapiens) (UniProt P17302); assay: Inhibition of human Cx43 expressed in kanamycin-resistant Escherichia coli LB2003 cells in medium containing […] K+ and 10 uM IPTG by measuring cell growth at 15 uM after 18 hrs by growth complementation assay; set-up: scale not given: the % may be the effect or the level left
# [4] = biological target: Gap junction alpha-1 protein (Homo sapiens) (UniProt P17302); assay: Inhibition of human Cx43 expressed in kanamycin-resistant Escherichia coli LB2003 cells in medium containing […] K+ and 10 uM IPTG by measuring cell growth at 50 uM after 18 hrs by growth complementation assay; set-up: scale not given: the % may be the effect or the level left
# [5] = Selectivity ratio of IC50 for inhibition of human Cx43 to IC50 for inhibition of human Cx26
# Chain of Gap junction alpha-1 protein (Homo sapiens) (P17302 whole entry): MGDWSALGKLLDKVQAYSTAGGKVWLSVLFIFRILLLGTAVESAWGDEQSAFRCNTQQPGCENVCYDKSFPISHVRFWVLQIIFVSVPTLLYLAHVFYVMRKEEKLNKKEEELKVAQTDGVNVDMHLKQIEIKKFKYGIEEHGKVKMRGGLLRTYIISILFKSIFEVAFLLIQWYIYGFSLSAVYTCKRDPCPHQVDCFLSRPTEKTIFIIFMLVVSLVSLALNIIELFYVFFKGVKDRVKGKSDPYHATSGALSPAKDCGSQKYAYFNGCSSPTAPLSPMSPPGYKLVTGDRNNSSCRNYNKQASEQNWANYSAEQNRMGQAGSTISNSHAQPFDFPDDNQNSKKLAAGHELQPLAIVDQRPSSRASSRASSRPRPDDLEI
Activity [1],Activity [2],Activity [3],Activity [4],Selectivity ratio [5],Structure (SMILES)
–,–,–,–,0.3,NC[C@H]1O[C@H](O[C@H]2[C@H](O)[C@@H](O[C@H]3O[C@H](COCc4ccc(F)cc4)[C@@H](OCc4ccc(F)cc4)[C@H](N)[C@H]3O)[C@H](N)C[C@@H]2N)[C@H](O)[C@@H](O)[C@@H]1O
16.4%,56.2%,53.6%,70.9%,6.88,CCCCCCCCCCCC(=O)NC[C@H]1O[C@H](O[C@H]2[C@H](O)[C@@H](O[C@H]3O[C@H](CO)[C@@H](O)[C@H](N)[C@H]3O)[C@H](N)C[C@@H]2N)[C@H](O)[C@@H](O)[C@@H]1O
26.8%,49.2%,38.1%,51%,–,Cc1ccc(S(=O)(=O)OC[C@H]2O[C@H](O[C@@H]3[C@@H](O)[C@H](O[C@H]4O[C@H](CN)[C@@H](O)[C@H](O)[C@H]4O)[C@@H](N)C[C@H]3N)[C@H](O)[C@@H](N)[C@@H]2O)cc1
22.3%,79.6%,56.8%,83.4%,1.42,N[C@@H]1[C@@H](O)[C@@H](O[C@@H]2[C@@H](O)[C@H](O[C@H]3O[C@H](CNC(=O)c4ccccc4-c4c5ccc(=O)cc-5oc5cc(O)ccc45)[C@@H](O)[C@H](O)[C@H]3O)[C@@H](N)C[C@H]2N)O[C@H](CO)[C@H]1O
19.3%,28.2%,63.8%,76.8%,7.97,Cc1ccc(OC[C@H]2O[C@H](O[C@@H]3[C@@H](O)[C@H](O[C@H]4O[C@H](CN)[C@@H](O)[C@H](O)[C@H]4O)[C@@H](N)C[C@H]3N)[C@H](O)[C@@H](N)[C@@H]2O)cc1
–,–,–,–,0.15,NC[C@H]1O[C@H](O[C@H]2[C@H](O)[C@@H](O[C@H]3O[C@H](COCc4ccc(Cl)cc4)[C@@H](OCc4ccc(Cl)cc4)[C@H](N)[C@H]3O)[C@H](N)C[C@@H]2N)[C@H](O)[C@@H](O)[C@@H]1O
16.1%,33.6%,44.4%,53.5%,–,CCCCCCCCCC(=O)NC[C@H]1O[C@H](O[C@H]2[C@H](O)[C@@H](O[C@H]3O[C@H](CO)[C@@H](O)[C@H](N)[C@H]3O)[C@H](N)C[C@@H]2N)[C@H](O)[C@@H](O)[C@@H]1O
35.9%,62.6%,36.5%,49.3%,–,NC[C@H]1O[C@H](O[C@H]2[C@H](O)[C@@H](O[C@H]3O[C@H](COc4ccc([N+](=O)[O-])cc4)[C@@H](O)[C@H](N)[C@H]3O)[C@H](N)C[C@@H]2N)[C@H](O)[C@@H](O)[C@@H]1O
22.5%,34.3%,18.5%,36%,–,CCCCCCC(=O)NC[C@H]1O[C@H](O[C@H]2[C@H](O)[C@@H](O[C@H]3O[C@H](CO)[C@@H](O)[C@H](N)[C@H]3O)[C@H](N)C[C@@H]2N)[C@H](O)[C@@H](O)[C@@H]1O

# Further lines, the compound ahead of its results:
Structure (SMILES),Activity [1],Activity [2],Activity [3],Activity [4],Selectivity ratio [5]
NC[C@H]1O[C@H](O[C@H]2[C@H](O)[C@@H](O[C@H]3O[C@H](COc4ccccc4)[C@@H](O)[C@H](N)[C@H]3O)[C@H](N)C[C@@H]2N)[C@H](O)[C@@H](O)[C@@H]1O,14.6%,69.4%,36%,46.7%,–
COc1ccc2cc(C(=O)NC[C@H]3O[C@H](O[C@H]4[C@H](O)[C@@H](O[C@H]5O[C@H](CO)[C@@H](O)[C@H](N)[C@H]5O)[C@H](N)C[C@@H]4N)[C@H](O)[C@@H](O)[C@@H]3O)ccc2c1,15.1%,27.9%,42.1%,45.1%,–
N[C@@H]1[C@@H](O)[C@@H](O[C@@H]2[C@@H](O)[C@H](O[C@H]3O[C@H](CNC(=O)CCCc4cc5ccc6cccc7ccc(c4)c5c67)[C@@H](O)[C@H](O)[C@H]3O)[C@@H](N)C[C@H]2N)O[C@H](CO)[C@H]1O,36.9%,79.2%,52.2%,69.6%,2.16
CCCCCCCC(=O)NC[C@H]1O[C@H](O[C@H]2[C@H](O)[C@@H](O[C@H]3O[C@H](CO)[C@@H](O)[C@H](N)[C@H]3O)[C@H](N)C[C@@H]2N)[C@H](O)[C@@H](O)[C@@H]1O,14%,25.2%,17%,37.2%,–
N[C@@H]1[C@@H](O)[C@@H](O[C@@H]2[C@@H](O)[C@H](O[C@H]3O[C@H](CNC(=O)c4cc(-c5ccccc5)nc5ccccc45)[C@@H](O)[C@H](O)[C@H]3O)[C@@H](N)C[C@H]2N)O[C@H](CO)[C@H]1O,8%,22.8%,25.5%,51%,–
NC[C@H]1O[C@H](O[C@H]2[C@H](O)[C@@H](O[C@H]3O[C@H](COc4ccc(-c5ccccc5)cc4)[C@@H](O)[C@H](N)[C@H]3O)[C@H](N)C[C@@H]2N)[C@H](O)[C@@H](O)[C@@H]1O,46.3%,67.8%,27.3%,54.3%,–
COc1ccc(COC[C@H]2O[C@H](O[C@@H]3[C@@H](O)[C@H](O[C@H]4O[C@H](CN)[C@@H](O)[C@H](O)[C@H]4O)[C@@H](N)C[C@H]3N)[C@H](O)[C@@H](N)[C@@H]2OCc2ccc(OC)cc2)cc1,–,–,–,–,3.17
NC[C@H]1O[C@H](O[C@H]2[C@H](O)[C@@H](O[C@H]3O[C@H](COc4ccc(Cl)cc4)[C@@H](O)[C@H](N)[C@H]3O)[C@H](N)C[C@@H]2N)[C@H](O)[C@@H](O)[C@@H]1O,44.4%,69.5%,50.3%,68.3%,1.93
NC[C@H]1O[C@H](O[C@H]2[C@H](O)[C@@H](O[C@H]3O[C@H](COCc4cccc(-c5ccccc5)c4)[C@@H](OCc4cccc(-c5ccccc5)c4)[C@H](N)[C@H]3O)[C@H](N)C[C@@H]2N)[C@H](O)[C@@H](O)[C@@H]1O,–,–,–,–,1.23
Cc1ccc(COC[C@H]2O[C@H](O[C@@H]3[C@@H](O)[C@H](O[C@H]4O[C@H](CN)[C@@H](O)[C@H](O)[C@H]4O)[C@@H](N)C[C@H]3N)[C@H](O)[C@@H](N)[C@@H]2OCc2ccc(C)cc2)cc1,–,–,–,–,1.39
NC[C@H]1O[C@H](O[C@H]2[C@H](O)[C@@H](O[C@H]3O[C@H](COc4ccc(-c5nc6ccccc6[nH]5)cc4)[C@@H](O)[C@H](N)[C@H]3O)[C@H](N)C[C@@H]2N)[C@H](O)[C@@H](O)[C@@H]1O,83.1%,85.5%,43.2%,71.7%,0.34
NC[C@H]1O[C@H](O[C@H]2[C@H](O)[C@@H](O[C@H]3O[C@H](COCc4ccc5ccccc5c4)[C@@H](OCc4ccc5ccccc5c4)[C@H](N)[C@H]3O)[C@H](N)C[C@@H]2N)[C@H](O)[C@@H](O)[C@@H]1O,–,–,–,–,1.07
COc1ccc(OC[C@H]2O[C@H](O[C@@H]3[C@@H](O)[C@H](O[C@H]4O[C@H](CN)[C@@H](O)[C@H](O)[C@H]4O)[C@@H](N)C[C@H]3N)[C@H](O)[C@@H](N)[C@@H]2O)cc1,15.9%,36.5%,20%,34.8%,–
N[C@@H]1[C@@H](O)[C@@H](O[C@@H]2[C@@H](O)[C@H](O[C@H]3O[C@H](CNC(=O)c4ccc5cc(O)ccc5c4)[C@@H](O)[C@H](O)[C@H]3O)[C@@H](N)C[C@H]2N)O[C@H](CO)[C@H]1O,4.7%,32.8%,34.1%,37.1%,–
NC[C@H]1O[C@H](O[C@H]2[C@H](O)[C@@H](O[C@H]3O[C@H](CNC(=O)c4ccccc4-c4c5ccc(=O)cc-5oc5cc(O)ccc45)[C@@H](O)[C@H](N)[C@H]3O)[C@H](N)C[C@@H]2N)[C@H](O)[C@@H](O)[C@@H]1O,37.1%,81%,45.3%,55.1%,–
